Test results published in patent US7323485B2, “4-(substituted cycloalkylmethyl) imidazole-2-thiones, 4-(substituted cycloalkenylmethyl) imidazole-2-thiones, 4-(substituted cycloalkylmethyl) imidazol-2-ones and 4-(substituted cycloalkenylmethyl) imidazol-2-ones and related compounds” (Allergan, Inc., priority 2002, dated 2008).
Like-named read-outs stand apart in the source and are kept apart here.

Key:
[1] = tested on: rats with ligated L5 and L6 spinal nerves; assay: Chung model of neuropathic pain (tactile allodynia, von Frey hairs); format: in vivo; details: Rattus norvegicus, 0.5 h, 30 min following drug administration, read-out: % Pain Reversal ± SEM; for inhibition in vivo at 0.001 mg/kg: 1 μg/kg i.p.; for inhibition in vivo at 0.003 mg/kg: 3 μg/kg i.p.; for inhibition in vivo at 0.01 mg/kg: 10 μg/kg i.p.
From the text: A model in accordance with Kim and Chung 1992, Pain […], pp 355-363 (Chung model), for chronic pain (in particular peripheral neuropathy) involves the surgical ligation of the L5 (and optionally the L6) spinal nerves on one side in experimental animals. Rats recovering from the surgery gain weight and display a level of general activity similar to that of normal rats. However, these rats develop abnormalities of the foot, wherein the hindpaw is moderately everted and the toes are held together. More importantly, the hindpaw on the side affected by the surgery appears to become sensitive to pain from low-threshold mechanical stimuli, such as that producing a faint sensation of touch in a human, within about 1 week following surgery. This sensitivity to normally non-painful touch is called “tactile allodynia” and lasts for at least two months. The response includes lifting the affected hindpaw to escape from the stimulus, licking the paw and holding it in the air for many seconds. None of these responses is normally seen in the control group.
Rats are anesthetized before surgery. The surgical site is shaved and prepared either with betadine or Novacaine. Incision is made from the thoracic vertebra Xlll down toward the sacrum. Muscle tissue is separated from the spinal vertebra (left side) at the L4-S2 levels. The L6 vertebra is located and the transverse process is carefully removed with a small rongeur to expose the L4-L6 spinal nerves. The L5 and L6 spinal nerves are isolated and tightly ligated with 6-0 silk thread. The same procedure is done on the right side as a control, except no ligation of the spinal nerves is performed.
A complete hemostasis is confirmed, then the wounds are sutured. A small amount of antibiotic ointment is applied to the incised area, and the rat is transferred to the recovery plastic cage under a regulated heat-temperature lamp. On the day of the experiment, at least seven days after the surgery, typically six rats per test group are administered the test drugs by intraperitoneal (i.p.) injection or oral gavage. For i.p. injection, the compounds are formulated in approximately 10 to 50% DMSO and given in a volume of 1 ml/kg body weight.
Tactile allodynia is measured prior to and 30 minutes after drug administration using von Frey hairs that are a series of fine hairs with incremental differences in stiffness. Rats are placed in a plastic cage with a wire mesh bottom and allowed to acclimate for approximately 30 minutes. The von Frey hairs are applied perpendicularly through the mesh to the mid-plantar region of the rats' hindpaw with sufficient force to cause slight buckling and held for 6-8 seconds. The applied force has been calculated to range from 0.41 to 15.1 grams. If the paw is sharply withdrawn, it is considered a positive response. A normal animal will not respond to stimuli in this range, but a surgically ligated paw will be withdrawn in response to a 1-2 gram hair. The 50% paw withdrawal threshold is determined using the method of Dixon, W. J., Ann. Rev. Pharmacol. Toxicol. 20:441-462 (1980). The post-drug threshold is compared to the pre-drug threshold and the percent reversal of tactile sensitivity is calculated based on a normal threshold of 15.1 grams. The results are expressed in percent (%) MPE, where the MPE value reflects the percentage reversal of pain threshold to that of a normal animal (100%). Table 3 below indicates results of this test with Compounds 1, 7 and 29 of the invention, administered i.p. and in oral doses.

male Sprague-Dawley rats = assay: Sedative activity (exploratory behavior); format: in vivo, rat; details: intraperitoneally, up to a dose of 1 mg/kg
Method: To test sedation, six male Sprague-Dawley rats are given up to 3 mg/kg of the test compound in a saline or DMSO vehicle by intraperitoneal injection (i.p.). Sedation is graded 30 minutes following administration of the drug by monitoring locomotor skills as follows.
The Sprague-Dawley rats are weighed and 1 ml/kg body weight of an appropriate concentration (ie. 3 mg/ml for a final dose of 3 mg/kg) drug solution is injected intraperitoneally. Typically the test compound is formulated in approximately 10 to 50% DMSO. The results are compared to controls that are injected with 1 ml/kg saline or 10 to 50% DMSO. Rat activity is then determined 30 minutes after injection of the drug solution. Rats are placed in a dark covered chamber and a digicom analyzer (Omnitech Electronic) quantitates their exploratory behavior for a five-minute period. The machine records each time the rat interrupts an array of 32 photoelectric beams in the X and Y orientation.

`O=C1c2ccccc2CCC1Cc1c[nH]c(=S)[nH]1` (single isomer, unassigned) [Compound 23, 2-(2-thioxo-2,3-dihydro-1H-imidazol-4-ylmethyl)-3,4-dihydro-2H-naphthalen-1-one] was tested, and the inhibition in vivo at 0.001 mg/kg ([1]; ip) was 0.7 ± 0.8%, the inhibition in vivo at 0.003 mg/kg ([1]; ip) was 59 ± 5.8% and the inhibition in vivo at 0.01 mg/kg ([1]; ip) was 74 ± 6.1%. For the same molecule, the inhibition in vivo at 0.03 mg/kg ([1]; ip, 30 μg/kg i.p.) was 69 ± 10% and the sedative effect (male Sprague-Dawley rats) was “no sedative effect”.
In the case of `S=c1[nH]cc(CC2CC=CC2)[nH]1` [Compound 18, 4-cyclopent-3-enylmethyl-1,3-dihydro-imidazole-2-thione], the inhibition in vivo at 0.01 mg/kg ([1]; ip) is reported as 5 ± 2.5%, the inhibition in vivo at 0.03 mg/kg ([1]; ip, 30 μg/kg i.p.) is reported as 35 ± 5.2% and the inhibition in vivo at 0.1 mg/kg ([1]; ip, 100 μg/kg i.p.) is reported as 72 ± 6.6%. The inhibition in vivo at 0.3 mg/kg ([1]; ip, 300 μg/kg i.p.) was 71 ± 6.4%, the inhibition in vivo at 0.03 mg/kg ([1]; po, 30 μg/kg p.o.) was 1 ± 2% and the inhibition in vivo at 0.1 mg/kg ([1]; po, 100 μg/kg p.o.) was 68 ± 4.4%. The inhibition in vivo at 0.3 mg/kg ([1]; po, 300 μg/kg p.o.) was 82 ± 5.9%, the inhibition in vivo at 1 mg/kg ([1]; po, 1000 μg/kg p.o.) was 82 ± 8.1% and the sedative effect (male Sprague-Dawley rats) was “no sedative effect”.
`O=c1[nH]cc(CC2CCc3cc(F)ccc32)[nH]1` (centres unmarked) [Compound 49, 4-(5-fluoro-indan-1-ylmethyl)-1,3-dihydro-imidazol-2-one] was tested, and the inhibition in vivo at 0.001 mg/kg ([1]; ip) was 2.3 ± 1.3%, the inhibition in vivo at 0.003 mg/kg ([1]; ip) was 23 ± 3.8% and the inhibition in vivo at 0.01 mg/kg ([1]; ip) was 39 ± 7.7%. The inhibition in vivo at 0.03 mg/kg ([1]; ip, 30 μg/kg i.p.) was 72 ± 8.2%, the inhibition in vivo at 0.1 mg/kg ([1]; ip, 100 μg/kg i.p.) was 80 ± 6.5% and the inhibition in vivo at 0.03 mg/kg ([1]; po, 30 μg/kg p.o.) was 43 ± 7.1%. For the same molecule, the inhibition in vivo at 0.1 mg/kg ([1]; po, 100 μg/kg p.o.) was 68 ± 4.8%, the inhibition in vivo at 0.3 mg/kg ([1]; po, 300 μg/kg p.o.) was 74 ± 6.8% and the sedative effect (male Sprague-Dawley rats) was “no sedative effect”.
